Experimental data reported in patent publication US20110046378A1, “Novel Imaging Agents for Detecting Neurological Dysfunction” (SIEMENS MEDICAL SOLUTIONS USA, INC., priority 2008, published 2011).
Read-outs that look alike come from different tables or passages of the source.

What was measured:
[1] = molecular target: Aβ(1-42) Oligomers/Polymers (Homo sapiens, UniProt P05067); experiment: Biacore (SPR) screening on immobilized Aβ42 oligomers/soluble polymers; type: binding; parameters: Binding to oligomers/polymers (Aβ1-42): key to the marks not given beside the values; settings: for BINDING LEVELS TO Aβ(1-42) Oligomers/Polymers: screening compounds at 10 uM
Aβ(1-42) Oligomers/Polymers, sequence (P05067 672-713 limits assumed): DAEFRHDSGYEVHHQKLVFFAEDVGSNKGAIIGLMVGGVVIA

Aβ(1-42) Fibrils = Aβ(1-42) Fibrils (Homo sapiens, UniProt P05067); experiment: Biacore (SPR) screening on immobilized Aβ42 fibrils; type: binding; settings: for BINDING LEVELS TO Aβ(1-42) Fibrils: screening compounds at 10 uM;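 for BINDING LEVELS TO Aβ(1-42) Fibrils: minus means no binding and more plus signs mean higher affinity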
Aβ(1-42) Fibrils, sequence (P05067 672-713 limits assumed): as above

Aβ monomer = settings: read-out: Binding Affinity IC50; cited from earlier work
[2] = system: Amyloid (AD patient's brain slice); experiment: Amyloid autoradiography staining of AD patient's brain slices, grey/white matter binding with wash protocols; parameters: species or system human
Description: (§1) Ex Vivo Competition Assay Using Amyloid (AD patient's brain slice) Autoradiography Staining
A study was conducted to examine the grey to white matter binding ratios for 4 different tracers: CB-001, CB-003, FDDNP and F-PiB (FIG. 7 and FIG. 8). […] After the human brain slices from AD patients were incubated with a given tracer for 30 min, the slices were washed with various EtOH:water solutions in an attempt to optimize the grey-to white matter ratios (FIG. 9). The results were surprising and unexpected in view of previous work performed by other researchers. CB-001 has a slightly higher c Log P than FDDNP (3.8 vs 3.4) and would be expected to have poorer washout than FDDNP based on these values. […] More specifically, the white matter binding of FDDNP is several shades darker than CB-001's white matter binding, indicating low non-specific binding of CB-001.

[3] = system: Amyloid (AD brain slices); experiment: [18F]-CB001 competition studies on AD brain slices; type: binding, human; settings: cold competitor, increasing concentrations
[4] = molecular target: T1, Amyloid (AD patient's brain slice) (Homo sapiens, UniProt P05067); experiment: IC50 determination with [18F]-PiB by ex vivo competition assay using autoradiography staining; type: binding
T1 construct: The brain slices were 20 um thick
T1 sequence (P05067 672-711 limits assumed): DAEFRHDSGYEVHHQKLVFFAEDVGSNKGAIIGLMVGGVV
Text: as §1

[5] = mean of determinations, vs [18F]-PiB, read-out: Average IC50

SMILES	BINDING LEVELS TO Aβ(1-42) Oligomers/Polymers [1]	BINDING LEVELS TO Aβ(1-42) Fibrils (Aβ(1-42) Fibrils)	also measured
O=c1c(O)c(-c2ccccc2)oc2ccc(O)cc12	+++	++	
CCOc1ccc2c(=O)c(Oc3ccccc3)c(C)oc2c1	+	+	
Fc1ccc(-c2cn(-c3ccc(Cl)c(Cl)c3)nn2)c(F)c1	+	−	
Cc1c(-c2ccccc2)c(=O)oc2cc(O)ccc12	+	−	
O=c1c(O)c(-c2cccc(O)c2)oc2ccc(O)cc12	++++	++	
Cc1c(-c2ccccc2)oc2cc(O)ccc2c1=O	+	+	
CC1NCCc2cc(O)c(O)cc21 (stereo not shown)	++	+	
O=c1c(O)c(-c2ccccc2)[nH]c2ccccc12	++++	++	
O=S(=O)(O)c1cccc2cccc(Nc3ccccc3)c12 [ANS]			IC50 (Aβ monomer): > 100 µM
COc1cccc(-c2oc3cc(OC)ccc3c(=O)c2OC)c1	+	−	
CCc1cc2c(=O)c(-c3ccc(F)cc3)c(C)oc2cc1O	+	−	
Oc1ccc(-c2nc(-c3ccncc3)c(-c3ccc(F)cc3)[nH]2)cc1	++	++	
O=c1cc(-c2ccccc2)c2ccc(O)c(O)c2o1	+++++	+++	
CC(=C(C#N)C#N)c1ccc2cc(N(C)CCF)ccc2c1 [FDDNP, reference compound]			Grey/white matter binding ratio using mild wash conditions ([2]; 30 min incubation, PBS, 30%/40%/20% EtOH:water, PBS, 20 um AD brain slices): Poor; Grey/white matter binding ratio using harsh FDDNP wash conditions ([2]; 30 min incubation, PBS, 70%/90%/70% EtOH:water, PBS, 20 um AD brain slices): Fair; order of (non-specific) white matter binding ([2]; AD brain slices): FDDNP>CB001>[18F]-PiB>CB003; blocking of [18F]-CB001 staining [3]: much less capable of blocking [18F]-CB001 staining
COc1cc(/C=C/C(=O)/C=C(O)/C=C/c2ccc(O)c(OC)c2)ccc1O [Curcumin]			IC50 (Aβ monomer): 10 to 20 µM
Fc1ccc(-c2cn(-c3cccc(C(F)(F)F)c3)nn2)c(F)c1	+	+	
O=CNc1ccc2c(c1)[nH]c1cc(OCCOCCF)ccc12 [CB-024, N-(7-(2-(2-fluoroethoxy)ethoxy)-9H-carbazol-2-yl)formamide]			IC50 ([4]; determination 7, vs [18F]-PiB, read-out: IC50 7): 540 nM; IC50 [4, 5]: 540 nM
Nc1c(/N=N/c2ccc(-c3ccc(/N=N/c4cc(S(=O)(=O)O)c5ccccc5c4N)cc3)cc2)cc(S(=O)(=O)O)c2ccccc12 [Congo Red]			IC50 (Aβ monomer): 2 to 10 µM
COc1c(-c2ccco2)oc2ccccc2c1=O	+	+	
Cc1ccc(O)c(-c2ccno2)c1	+	+	
Cc1cc(C)c2oc(-c3cccs3)c(O)c(=O)c2c1	+	−	
CNc1ccc2c(c1)[nH]c1cc(OCCOCCOCCF)ccc12 [CB-004, 7-(2-(2-(2-fluoroethoxy)ethoxy)ethoxy)-N-methyl-9H-carbazol-2-amine]			IC50 ([4]; determination 1, vs [18F]-PiB, read-out: IC50 1): 260 nM; IC50 ([4]; determination 3, vs [18F]-PiB, read-out: IC50 3): 350 nM; IC50 ([4]; determination 5, vs [18F]-PiB, read-out: IC50 5): 300 nM; IC50 ([4]; determination 6, vs [18F]-PiB, read-out: IC50 6): 300 nM; IC50 ([4]; determination 13, vs [18F]-PiB, read-out: IC50 13): 400 nM; IC50 [4, 5]: 322 nM
Cc1nccc2c1[nH]c1cc(O)ccc12 [drawing 134]			Binding to oligomers/polymers (Aβ1-42) ([1]; carbazole-based hits): ++; Binding to fibrils (Aβ1-42) (Aβ(1-42) Fibrils; carbazole-based hits): +
Cc1ccc2c(c1)sc(-c1ccc(N(C)C)cc1)[n+]2C [Thioflavin T]			IC50 (Aβ monomer): > 500 µM
Cc1oc2cc(O)ccc2c(=O)c1-c1nncn1-c1ccccc1	++	+	
